Marks after values point to notes of the source that are not given here.
Tests used:
[1] = system: HaCaT cells; assay: Production of reactive oxygen species in HaCat cells incubated with oil then preservative (POE or MIT); assay type: cell-based
Procedure: Preservatives, used as an additive in pharmaceutical compositions, were evaluated. The preservatives evaluated are phenoxyethanol (POE) and methylisothiazolinone (MIT).
For this test, the HaCat cells are incubated with the oils A or B (for example for 15 minutes for the test with POE) then with the preservative POE or MIT (for example for 30 minutes with a solution of phenoxyethanol at 250 μg/mL).

[2] = system: HaCaT cells; assay: Condensation of the chromatin, HOECHST 33342 test, HaCat cells with or without benzalkonium chloride; assay type: cell-based; settings: one hour with oil or CM, then 20 minutes benzalkonium chloride (BAC) 8 ppm by weight
Procedure: The following standards and methods were used to measure the properties hereinabove: • flash point: EN ISO 2719 • density at 15° C.: EN ISO 1185 • viscosity at 40° C.: EN ISO 3104 • aniline point: EN ISO 2977 • boiling point: ASTM D86 • biodegradability: OECD method 306 • refractive index at 20° C.: ASTM D 1218 • vapour pressure: calculated according to methods well known to those skilled in the art Tests on the Cellular Effects Preparation of the Tests: • Preparation of the microplates: 24 hours before the incubation with the oils A and B, the HaCaT cells are inoculated with a cell density of 100,000 cells/ml in 96-well microplates (Corning). The microplates are then placed in the incubator at 37° C. In a microplate, each condition was tested at least three times. Each experiment was carried out at least three times independently in order to validate the reproducibility of the results and to carry out statistical analyses. • Incubation of cells with the oils A or B: two durations of incubation were selected for the products to be tested pure: an incubation for fifteen minutes and an incubation for one hour. […]
The measurement of the condensation of the chromatin expressed as a percentage relative to the culture medium (CM) is indicated in table 3 hereinbelow.

phenoxyethanol [CM + POE]
Production of reactive oxygen species (% relative to the CM) ([1]; with preservative phenoxyethanol (POE) 250 μg/mL 30 minutes, after 15 minutes with oil or CM): 132 % relative to the CM

benzalkonium chloride [CM + BAC]
Measurement of the condensation of the chromatin (% relative to the CM) [2]: 138*** % relative to the CM

Cn1sccc1=O [MIT, methylisothiazolinone]
Production of reactive oxygen species (% relative to the CM) ([1]; with preservative methylisothiazolinone (MIT), after incubation with oil or CM): 135 % relative to the CM
